Reference: ChEMBL document CHEMBL1135648, “Synthesis and evaluation of no-carrier-added 8-cyclopentyl-3-(3-[(18)F]fluoropropyl)-1-propylxanthine ([(18)F]CPFPX): a potent and selective A(1)-adenosine receptor antagonist for in vivo imaging” (J Med Chem, 2002)

Legend:
Mus musculus [1] = test: In vivo biodistribution in NMRI (Naval Medical Research Institute) mice heart at the dose of 0.15-0.2 nmol at 60 min; format: ADME, organism-based; conditions: 1 h
Mus musculus [2] = test: In vivo biodistribution in NMRI (Naval Medical Research Institute) mice heart at the dose of 0.15-0.2 nmol at 40 min; format: ADME, organism-based
Mus musculus [3] = test: In vivo biodistribution in NMRI (Naval Medical Research Institute) mice intestine at the dose of 0.15-0.2 nmol at 40 min; format: ADME, organism-based
Mus musculus [4] = test: In vivo biodistribution in NMRI (Naval Medical Research Institute) mice bone at the dose of 0.15-0.2 nmol at 5 min; format: ADME, organism-based, Bone element
Mus musculus [5] = test: In vivo biodistribution in NMRI (Naval Medical Research Institute) mice brain at the dose of 0.15-0.2 nmol at 2 min; format: ADME, organism-based
Mus musculus [6] = test: In vivo biodistribution in NMRI (Naval Medical Research Institute) mice brain at the dose of 0.15-0.2 nmol at 10 min; format: ADME, organism-based
Mus musculus [7] = test: In vivo biodistribution in NMRI (Naval Medical Research Institute) mice pancreas at the dose of 0.15-0.2 nmol at 2 min; format: ADME, organism-based
Mus musculus [8] = test: In vivo biodistribution in NMRI (Naval Medical Research Institute) mice liver at the dose of 0.15-0.2 nmol at 5 min; format: ADME, organism-based
Adenosine receptor A1 [9] = molecular target: T1, Adenosine receptor A1 (Bos taurus, UniProt P28190); test: In vitro binding affinity for Adenosine A1 receptor of bovine cortex
T1 sequence (P28190 whole entry): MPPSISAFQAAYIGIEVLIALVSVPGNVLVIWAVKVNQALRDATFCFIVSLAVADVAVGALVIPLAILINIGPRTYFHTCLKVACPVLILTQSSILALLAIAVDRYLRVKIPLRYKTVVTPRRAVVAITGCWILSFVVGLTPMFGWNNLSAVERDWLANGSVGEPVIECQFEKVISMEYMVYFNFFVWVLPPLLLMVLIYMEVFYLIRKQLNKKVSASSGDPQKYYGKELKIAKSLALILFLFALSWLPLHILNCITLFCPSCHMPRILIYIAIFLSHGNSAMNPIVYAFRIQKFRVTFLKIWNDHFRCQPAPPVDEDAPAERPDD

Mus musculus [10] = test: In vivo biodistribution in NMRI (Naval Medical Research Institute) mice lung at the dose of 0.15-0.2 nmol at 60 min; format: ADME, organism-based; conditions: 1 h
Mus musculus [11] = test: In vivo biodistribution in NMRI (Naval Medical Research Institute) mice bone at the dose of 0.15-0.2 nmol at 10 min; format: ADME, organism-based, Bone element
Mus musculus [12] = test: In vivo biodistribution in NMRI (Naval Medical Research Institute) mice blood at the dose of 0.15-0.2 nmol at 5 min; format: ADME, organism-based
Mus musculus [13] = test: In vivo biodistribution in NMRI (Naval Medical Research Institute) mice intestine at the dose of 0.15-0.2 nmol at 20 min; format: ADME, organism-based
Mus musculus [14] = test: In vivo biodistribution in NMRI (Naval Medical Research Institute) mice kidney at the dose of 0.15-0.2 nmol at 40 min; format: ADME, organism-based
Mus musculus [15] = test: In vivo biodistribution in NMRI (Naval Medical Research Institute) mice bone at the dose of 0.15-0.2 nmol at 40 min; format: ADME, organism-based, Bone element
Mus musculus [16] = test: In vivo biodistribution in NMRI (Naval Medical Research Institute) mice spleen at the dose of 0.15-0.2 nmol at 20 min; format: ADME, organism-based
Mus musculus [17] = test: In vivo biodistribution in NMRI (Naval Medical Research Institute) mice intestine at the dose of 0.15-0.2 nmol at 60 min; format: ADME, organism-based; conditions: 1 h
Mus musculus [18] = test: In vivo biodistribution in NMRI (Naval Medical Research Institute) mice intestine at the dose of 0.15-0.2 nmol at 5 min; format: ADME, organism-based
Mus musculus [19] = test: In vivo biodistribution in NMRI (Naval Medical Research Institute) mice blood at the dose of 0.15-0.2 nmol at 40 min; format: ADME, organism-based
Mus musculus [20] = test: In vivo biodistribution in NMRI (Naval Medical Research Institute) mice lung at the dose of 0.15-0.2 nmol at 5 min; format: ADME, organism-based
Mus musculus [21] = test: In vivo biodistribution in NMRI (Naval Medical Research Institute) mice intestine at the dose of 0.15-0.2 nmol at 2 min; format: ADME, organism-based
Mus musculus [22] = test: In vivo biodistribution in NMRI (Naval Medical Research Institute) mice spleen at the dose of 0.15-0.2 nmol at 5 min; format: ADME, organism-based
Mus musculus [23] = test: In vivo biodistribution in NMRI (Naval Medical Research Institute) mice liver at the dose of 0.15-0.2 nmol at 60 min; format: ADME, organism-based; conditions: 1 h
Mus musculus [24] = test: In vivo biodistribution in NMRI (Naval Medical Research Institute) mice liver at the dose of 0.15-0.2 nmol at 20 min; format: ADME, organism-based
Mus musculus [25] = test: In vivo biodistribution in NMRI (Naval Medical Research Institute) mice kidney at the dose of 0.15-0.2 nmol at 5 min; format: ADME, organism-based
Mus musculus [26] = test: In vivo biodistribution in NMRI (Naval Medical Research Institute) mice pancreas at the dose of 0.15-0.2 nmol at 5 min; format: ADME, organism-based
Mus musculus [27] = test: In vivo biodistribution in NMRI (Naval Medical Research Institute) mice kidney at the dose of 0.15-0.2 nmol at 60 min; format: ADME, organism-based; conditions: 1 h
Mus musculus [28] = test: In vivo biodistribution in NMRI (Naval Medical Research Institute) mice blood at the dose of 0.15-0.2 nmol at 20 min; format: ADME, organism-based
Adenosine receptor A1 [29] = molecular target: T2, Adenosine receptor A1 (Homo sapiens, UniProt P30542); test: In vitro binding affinity for human Adenosine A1 receptor expressed in CHO-K1 cells; format: cell-based
T2 sequence (P30542 whole entry): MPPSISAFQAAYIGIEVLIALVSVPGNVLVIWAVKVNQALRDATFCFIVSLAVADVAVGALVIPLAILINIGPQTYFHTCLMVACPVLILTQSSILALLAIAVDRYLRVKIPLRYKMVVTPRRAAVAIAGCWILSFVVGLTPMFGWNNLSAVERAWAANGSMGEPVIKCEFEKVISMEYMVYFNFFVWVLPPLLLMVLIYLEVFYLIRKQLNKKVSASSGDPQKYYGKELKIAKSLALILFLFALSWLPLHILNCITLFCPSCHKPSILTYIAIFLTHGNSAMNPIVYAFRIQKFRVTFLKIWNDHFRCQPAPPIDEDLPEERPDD

Mus musculus [30] = test: In vivo biodistribution in NMRI (Naval Medical Research Institute) mice lung at the dose of 0.15-0.2 nmol at 40 min; format: ADME, organism-based
Adenosine receptor A2a = Adenosine receptor A2a (Rattus norvegicus, UniProt P30543); test: In vitro binding affinity at Adenosine A2A receptor of rat cortex
Mus musculus [31] = test: In vivo biodistribution in NMRI (Naval Medical Research Institute) mice blood at the dose of 0.15-0.2 n mol at 2 min; format: ADME, organism-based
Mus musculus [32] = test: In vivo biodistribution in NMRI (Naval Medical Research Institute) mice blood at the dose of 0.15-0.2 nmol at 60 min; format: ADME, organism-based; conditions: 1 h

Sequence of Adenosine receptor A2a (P30543 whole entry): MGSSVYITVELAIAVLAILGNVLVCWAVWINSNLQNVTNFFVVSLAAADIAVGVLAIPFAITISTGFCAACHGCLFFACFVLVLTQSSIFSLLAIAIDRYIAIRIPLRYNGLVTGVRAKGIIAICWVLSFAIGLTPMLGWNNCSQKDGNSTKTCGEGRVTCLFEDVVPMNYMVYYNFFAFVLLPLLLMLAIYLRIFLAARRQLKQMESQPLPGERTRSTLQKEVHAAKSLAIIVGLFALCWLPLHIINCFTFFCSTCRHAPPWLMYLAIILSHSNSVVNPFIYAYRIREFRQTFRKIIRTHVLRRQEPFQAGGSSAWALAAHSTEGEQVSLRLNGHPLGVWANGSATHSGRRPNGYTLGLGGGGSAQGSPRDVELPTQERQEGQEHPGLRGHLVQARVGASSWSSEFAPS

For `CCCn1c(=O)c2nc(C3CCCC3)[nH]c2n(CCC[18F])c1=O`, the ID/g (Mus musculus [1]) was 1.63%, the ID/g (Mus musculus [2]) was 4.23% and the ID/g (Mus musculus [3]) was 3.74%. For the same molecule, the ID/g (Mus musculus [4]) was 1.4%, the ID/g (Mus musculus [5]) was 2.45% and the ID/g (Mus musculus [6]) was 2.44%. For the same molecule, the ID/g (Mus musculus [7]) was 3.58%, the ID/g (Mus musculus [8]) was 7.44% and the Ki (Adenosine receptor A1 [9]) was 0.18 nM. The ID/g (Mus musculus [10]) was 2.43%, the ID/g (Mus musculus [11]) was 1.71% and the ID/g (Mus musculus [12]) was 6.53%. It also gave an ID/g (Mus musculus [13]) of 3.51%, an ID/g (Mus musculus [14]) of 5.95% and an ID/g (Mus musculus [15]) of 2.18%. For the same molecule, the ID/g (Mus musculus [16]) was 1.78%, the ID/g (Mus musculus [17]) was 9.13% and the ID/g (Mus musculus [18]) was 2.21%. The ID/g (Mus musculus [19]) was 3.92%, the ID/g (Mus musculus [20]) was 4.22% and the ID/g (Mus musculus [21]) was 2.07%. The ID/g (Mus musculus [22]) was 1.56%, the ID/g (Mus musculus [23]) was 4.36% and the ID/g (Mus musculus [24]) was 9.93%. The ID/g (Mus musculus [25]) was 3.81%, the ID/g (Mus musculus [26]) was 3.35% and the ID/g (Mus musculus [27]) was 2.63%. For the same molecule, the ID/g (Mus musculus [28]) was 4.13%, the Kd (Adenosine receptor A1 [29]) was 1.26 nM and the ID/g (Mus musculus [30]) was 5.7%. For the same molecule, the Ki (Adenosine receptor A2a) was 812 nM, the ID/g (Mus musculus [31]) was 11.2% and the ID/g (Mus musculus [32]) was 1.55%.
